22 molecules from patent US20100137313A1 (ASTRAZENECA AB, priority 2008, published 2010) can be followed below.

Chain of S. pneumoniae Topoisomerase IV ATPase (ParE) (Q59961 whole entry): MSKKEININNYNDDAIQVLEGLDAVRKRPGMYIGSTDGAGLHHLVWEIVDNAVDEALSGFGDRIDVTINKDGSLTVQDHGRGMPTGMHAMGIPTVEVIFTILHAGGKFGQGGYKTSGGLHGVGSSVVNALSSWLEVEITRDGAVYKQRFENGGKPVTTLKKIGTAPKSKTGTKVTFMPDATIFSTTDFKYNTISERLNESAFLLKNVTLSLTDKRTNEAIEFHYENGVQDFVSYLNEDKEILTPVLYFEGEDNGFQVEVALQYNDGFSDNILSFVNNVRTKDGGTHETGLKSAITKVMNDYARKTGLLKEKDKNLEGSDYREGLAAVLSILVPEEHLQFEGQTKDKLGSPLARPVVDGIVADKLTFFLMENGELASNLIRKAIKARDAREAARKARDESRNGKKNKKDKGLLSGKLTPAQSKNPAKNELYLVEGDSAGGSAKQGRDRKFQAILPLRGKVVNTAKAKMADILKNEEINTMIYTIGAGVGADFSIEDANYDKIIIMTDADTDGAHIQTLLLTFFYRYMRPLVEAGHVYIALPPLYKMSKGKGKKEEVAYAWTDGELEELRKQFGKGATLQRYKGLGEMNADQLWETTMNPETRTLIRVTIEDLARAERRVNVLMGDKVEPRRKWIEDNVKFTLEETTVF

This test has as its target S. pneumoniae Topoisomerase IV ATPase (ParE) (Streptococcus pneumoniae serotype 4, UniProt Q59961). The test can be described thus: S. pneumoniae Topoisomerase IV ATPase inhibition. The format is biochemical. Particulars: values marked * are an average of two or more data points, read-out: % Inh (13 μM) of S. pneumoniae Topoisomerase IV ATPase. In short, it runs like this: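 ParE ATPase (1.25 nM) run with 160 μM ATP and 5 μg/ml sheared salmon sperm DNA in Tris pH 8.0, Mg2+, glycerol, DTT, Brij-35. Phosphate released read by malachite green/molybdate absorbance at 650 nm. IC50 from 10 compound concentrations; DMSO (2%) as 0% and EDTA (20 μM) as 100% inhibition.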
As for `CN(C)CCCNc1nc(Nc2cc(Cl)cc(Cl)c2)ncc1-c1ccc(C(=O)O)s1` [Example 339, 5-(2-(3,5-dichloro-phenylamino)-4-(3-(dimethylamino)propylamino)pyrimidin-5-yl) thiophene-2-carboxylic acid], the inhibition at 13 µM came to 84.3%. The same measure for `CN(C)CCCNc1nc(Nc2ccc(F)c(Cl)c2)ncc1-c1cncc(-c2noc(=O)[nH]2)c1` [Example 81, Sodium 3-(5-(2-(3-chloro-4-fluorophenylamino)-4-(3-(dimethylamino)propylamino)pyrimidin-5-yl)pyridin-3-yl)-5-oxo-1,2,4-oxadiazol-4-ide]: 72.6%; for `COc1cc(Nc2ncc(-c3cccnc3)c(-n3nc(C(F)(F)F)cc3C)n2)cc(C(F)(F)F)c1` [Example 884, N-(3-methoxy-5-(trifluoromethyl)phenyl)-4-(5-methyl-3-(trifluoromethyl)-1H-pyrazol-1-yl)-5-(pyridin-3-yl)pyrimidin-2-amine]: 100%.

Take `COc1ncc(-c2cnc(Nc3ccc(F)c(Cl)c3)nc2NCC2CCN(C(=O)C3CC3)CC2)cn1` [Example 466, (4-((2-(3-chloro-4-fluorophenylamino)-2′-methoxy-5,5′-bipyrimidin-4-ylamino)methyl)piperidin-1-yl)(cyclopropyl)methanone]: the inhibition at 13 µM stood at 78%.

For the molecule `O=C(O)c1cncc(-c2cnc(Nc3ccc(F)c(Cl)c3)nc2N2CCC2)c1` [Example 253, 5-[4-(azetidin-1-yl)-2-[(3-chloro-4-fluorophenyl)amino]-pyrimidin-5-yl]pyridine-3-carboxylic acid], the inhibition at 13 µM came to 75.1%. Take `O=C(O)/C=C/c1cccc(-c2cnc(Nc3ccc(F)c(Cl)c3)nc2-n2cc(-c3ccncc3)cn2)c1` [Example 312, (2E)-3-(3-{2-[(3-chloro-4-fluorophenyl)amino]-4-[4-(pyridin-4-yl)-1H-pyrazol-1-yl]pyrimidin-5-yl}phenyl)prop-2-enoic acid]: the inhibition at 13 µM amounted to 101%. Take `COc1ncc(-c2cnc(Nc3cc(C)cc(C)c3)nc2-n2ccc(C(F)(F)F)n2)cc1C(=O)O` [Example 648, 5-{2-[(3,5-dimethylphenyl)amino]-4-[3-(trifluoromethyl)-1H-pyrazol-1-yl]pyrimidin-5-yl}-2-methoxypyridine-3-carboxylic acid]: the inhibition at 13 µM came out at 100%. Under `CN(C)CCCNc1nc(Nc2cc(Cl)cc(Cl)c2)ncc1-c1cccc(/C=C/C(=O)O)c1` [Example 340, (E)-3-(3-(2-(3,5-dichlorophenylamino)-4-(3-(dimethylamino)propylamino)pyrimidin-5-yl)phenyl)acrylic acid] stands 83.3%; under `CCOC(=O)c1cncc(-c2cnc(Nc3ccc(F)c(Cl)c3)nc2N2CC(C)OC(C)C2)c1` (stereo not shown) [Example 139, ethyl 5-(2-(3-chloro-4-fluorophenylamino)-4-(2,6-dimethylmorpholino)pyrimidin-5-yl)nicotinate], 80.1%. The same measure for `CCOC(=O)c1cncc(-c2cnc(Nc3ccc(F)c(Cl)c3)nc2NCCc2ccccn2)c1` [Example 101, 5-[2-(3-Chloro-4-fluoro-phenylamino)-4-(2-pyridin-2-yl-ethylamino)-pyrimidin-5-yl]-nicotinic acid ethyl ester]: 8.69%. For the molecule `N#Cc1cc(Nc2ncc(-c3cncc(C(=O)O)c3)c(N3CCOCC3)n2)ccc1F` [Example 440], the inhibition at 13 µM was 85%. The same measure for `COc1cc(Nc2ncc(-c3cnc(OCCCS(C)(=O)=O)c(C(=O)NS(C)(=O)=O)c3)c(-n3ccc(C(F)(F)F)n3)n2)cc(OC)c1` [Example 971, (2-(3,5-dimethoxyphenylamino)-4-(3-(trifluoromethyl)-1H-pyrazol-1-yl)pyrimidin-5-yl)-N-(methylsulfonyl)-2-(3-(methylsulfonyl)propoxy)nicotinamide]: 100%; for `O=C(O)c1cncc(-c2cnc(Nc3ccc(F)c(Cl)c3)nc2NCCCN2CCCC2=O)c1` [Example 219, 5-{2-(3-Chloro-4-fluoro-phenylamino)-4-[3-(2-oxo-pyrrolidin-1-yl)-propylamino]-pyrimidin-5-yl}-nicotinic acid]: 79%; for `O=C(O)c1cncc(-c2cnc(Nc3cccc(Cl)c3)nc2-n2ccc(C(F)(F)F)n2)c1` [Ex 745, 5-{2-[(3-chlorophenyl)amino]-4-[3-(trifluoromethyl)-1H-pyrazol-1-yl]pyrimidin-5-yl}pyridine-3-carboxylic acid]: 100%. Under `O=C(O)[C@@H]1C[C@H]1c1cncc(-c2cnc(Nc3ccc(F)c(Cl)c3)nc2-n2ccc(C(F)(F)F)n2)c1` [Example 573, (1,2-trans)-2-(5-(2-(3-chloro-4-fluorophenvlamino)-4-(3-(trifluoromethyl)-1H-pyrazol-1-yl)pyrimidin-5-yl)pyridin-3-yl)cyclopropanecarboxylic acid] stands 100%; under `COCCNc1nc(Nc2ccc(F)c(Cl)c2)ncc1-c1cncnc1` [Example 50, N^2-(3-chloro-4-fluorophenyl)-N^4-(2-methoxyethyl)-5-pyrimidin-5-ylpyrimidine-2,4-diamine], 77.8%. Under `O=C(O)c1cncc(-c2cnc(Nc3ccc(F)c(Cl)c3)nc2NCCN2CCOCC2)c1` [Example 227, 5-[2-(3-Chloro-4-fluoro-phenylamino)-4-(2-morpholin-4-yl-ethylamino)-pyrimidin-5-yl]-nicotinic acid] stands 79%; under `CCS(=O)(=O)NC(=O)c1cc(-c2cnc(Nc3ccc(F)c(Cl)c3)nc2-n2nc(C(F)(F)F)cc2C)cnc1OC` [Example 1017, 5-(2-(3-Chloro-4-fluorophenylamino)-4-(5-methyl-3-(trifluoromethyl)-1H-pyrazol-1-yl)pyrimidin-5-yl)-N-(ethylsulfonyl)-2-methoxynicotinamide], 90%; under `COc1ncc(-c2cnc(Nc3cc(C)cc(Cl)c3)nc2-n2ccc(C(F)(F)F)n2)cc1C(=O)NS(C)(=O)=O` [Example 800, 5-{2-[(3-chloro-5-methylphenyl)amino]-4-[3-(trifluoromethyl)-1H-pyrazol-1-yl]pyrimidin-5-yl}-2-methoxy-N-(methylsulfonyl)pyridine-3-carboxamide], 99%.

Take `CS(=O)(=O)CC(=O)c1cncc(-c2cnc(Nc3ccc(F)c(Cl)c3)nc2-n2ccc(C(F)(F)F)n2)c1` [Example 993, 1-(5-(2-(3-chloro-4-fluorophenylamino)-4-(3-(trifluoromethyl)-1H-pyrazol-1-yl)pyrimidin-5-yl)pyridin-3-yl)-2-(methylsulfonyl)ethanone]: the inhibition at 13 µM stood at 100%. Take `CN1CCC(Oc2ncc(-c3cnc(Nc4ccc(F)c(Cl)c4)nc3-n3ccc(C(F)(F)F)n3)cc2C(=O)O)C1` (stereo not shown) [Example 789, 5-{2-[(3-chloro-4-fluorophenyl)amino]-4-[3-(trifluoromethyl)-1H-pyrazol-1-yl]pyrimidin-5-yl}-2-[(1-methylpyrrolidin-3-yl)oxy]pyridine-3-carboxylic acid]: the inhibition at 13 µM came out at 99%. Under `COCCCNc1nc(Nc2ccc(F)c(Cl)c2)ncc1-c1ccc2cc(C(=O)O)[nH]c2c1` [Example 1061, 6-(2-(3-chloro-4-fluorophenylamino)-4-(3-methoxypropylamino)pyrimidin-5-yl)-1H-indole-2-carboxylic acid] stands 92%.
